Here are results for three compounds from paper PMC6695453, “Peptide translocation by the lysosomal ABC transporter TAPL is regulated by coupling efficiency and activation energy” (Scientific Reports, 2019).

The target in one assay is T1, TAPL (Homo sapiens, UniProt Q9NP78).
T1 construct: Human coreTAPL (Q9NP78 UniProt, amino acid 143–766) fused C-terminally to mVenus; made in house; host or cells: Pichia pastoris SMD1168-His+
T1 sequence (Q9NP78 143-766): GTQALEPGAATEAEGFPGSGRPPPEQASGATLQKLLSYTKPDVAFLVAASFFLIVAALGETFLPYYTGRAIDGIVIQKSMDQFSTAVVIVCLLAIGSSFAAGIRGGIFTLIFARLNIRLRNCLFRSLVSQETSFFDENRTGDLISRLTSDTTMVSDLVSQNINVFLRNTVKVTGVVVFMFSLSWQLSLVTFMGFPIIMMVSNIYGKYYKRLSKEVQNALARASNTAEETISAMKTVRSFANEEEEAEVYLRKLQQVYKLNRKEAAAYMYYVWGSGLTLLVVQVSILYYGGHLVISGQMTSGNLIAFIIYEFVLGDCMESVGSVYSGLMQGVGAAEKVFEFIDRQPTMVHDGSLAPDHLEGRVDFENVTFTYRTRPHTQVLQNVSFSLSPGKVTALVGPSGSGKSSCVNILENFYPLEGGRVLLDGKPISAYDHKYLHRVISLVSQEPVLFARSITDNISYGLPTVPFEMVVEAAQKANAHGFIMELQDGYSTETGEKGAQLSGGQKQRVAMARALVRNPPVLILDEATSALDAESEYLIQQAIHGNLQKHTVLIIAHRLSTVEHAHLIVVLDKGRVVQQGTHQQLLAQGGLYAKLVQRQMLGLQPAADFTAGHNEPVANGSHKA
As to conditions: GTP vs ATP; cited from earlier work. The text has this:
To decipher the coupling between nucleotide hydrolysis and peptide transport, we intended to reduce futile hydrolysis cycles without translocating peptides. Assuming a kinetic effect where ATP binding and subsequent ATP hydrolysis is much faster than peptide binding, a more stoichiometric coupling should be obtained with decreasing ATP concentrations. Therefore, we determined Michaelis-Menten kinetics of nucleotide hydrolysis and peptide transport with decreasing nucleotide concentrations. For sensitivity reasons, we switched from the colorimetric malachite green based assay to a radioactive b ...

The subject of another assay is PatA/PatB. As to conditions: transport and NTP hydrolysis, 37 °C; cited from earlier work. The text has this: Both nucleotides show the same Km and kcat values in respect of NTP hydrolysis. […] NTP dependent transport was found also for other ABC transporters. […] The full-length ABC transport Pdr5 from yeast hydrolyzes GTP and even UTP, but ...
In another assay the target is TmrAB (Thermus thermophilus, UniProt Q72J04+Q72J05). Nature of the assay: NTP dependent peptide transport by TmrAB. The settings on record: 68 °C, 9-mer^FL peptide.
A further assay relates to P-gp. As to conditions: cited from earlier work. The text has this:
(§1) Other ABC transporters like P-glycoprotein have a biphasic substrate dependent ATPase activity. […] Basal ATPase activity of MRP1 is 3-fold stimulated by its substrate leucotriene C4, which forms contacts to both halfs o ...

Another assay has as its system MRP1. As to conditions: cited from earlier work.
Text: as §1

SMILES strings stand for the structures.

For `Nc1nc2c(ncn2[C@@H]2O[C@H](COP(=O)(O)OP(=O)(O)OP(=O)(O)O)[C@@H](O)[C@H]2O)c(=O)[nH]1` [GTP], on TAPL, the “fuelling of peptide transport vs ATP (in words)” value is recorded as “to a lower extend than ATP”. In addition, in the assay with PatA/PatB, the “nucleotide preference of PatA/PatB (in words)” value was “strongly prefers GTP over ATP”. The “fold decreased transport rate for GTP compared to ATP, TmrAB” value on TmrAB came to 6 fold. Take `O[C@@H](COc1cccc2ncccc12)CN1CCN([C@@H]2c3ccccc3[C@@H]3[C@H](c4ccccc42)C3(F)F)CC1` [Zosuquidar]: the “effect on P-gp transport and ATP hydrolysis (in words)” value in the assay on P-gp is on record as “inhibits transport but stimulates ATP hydrolysis”. Take `CCCCC/C=C\C\C=C/C=C/C=C/[C@@H](SC[C@H](NC(=O)CC[C@H](N)C(=O)O)C(=O)NCC(=O)O)[C@@H](O)CCCC(=O)O` [leucotriene C4]: the “fold stimulation of basal ATPase activity” value in the assay with MRP1 is reported as 3 fold.
